Source: ChEMBL document CHEMBL5126617, “Application of Degradation of Cyclic-AMP Response Element Binding Protein for the Potential Treatment of Cancer” (ACS Med Chem Lett, 2022)

Assays:
LNCaP = experiment: Antiproliferative activity against human LNCaP cells assessed as reduction in cell viability by CellTitre-Glo assay; format: functional, cell-based
[1] = target: Protein cereblon/Histone acetyltransferase p300 (Homo sapiens) (UniProt Q09472+Q96SW2); experiment: Protac activity at E3 ubiquitin ligase/P300 in human LNcaP cells assessed as degradation of P300 at 10 nM by immunoblotting analysis relative to control; format: cell-based
Sequence of Protein cereblon/Histone acetyltransferase p300 (Homo sapiens) (Q09472 2-2414 limits assumed): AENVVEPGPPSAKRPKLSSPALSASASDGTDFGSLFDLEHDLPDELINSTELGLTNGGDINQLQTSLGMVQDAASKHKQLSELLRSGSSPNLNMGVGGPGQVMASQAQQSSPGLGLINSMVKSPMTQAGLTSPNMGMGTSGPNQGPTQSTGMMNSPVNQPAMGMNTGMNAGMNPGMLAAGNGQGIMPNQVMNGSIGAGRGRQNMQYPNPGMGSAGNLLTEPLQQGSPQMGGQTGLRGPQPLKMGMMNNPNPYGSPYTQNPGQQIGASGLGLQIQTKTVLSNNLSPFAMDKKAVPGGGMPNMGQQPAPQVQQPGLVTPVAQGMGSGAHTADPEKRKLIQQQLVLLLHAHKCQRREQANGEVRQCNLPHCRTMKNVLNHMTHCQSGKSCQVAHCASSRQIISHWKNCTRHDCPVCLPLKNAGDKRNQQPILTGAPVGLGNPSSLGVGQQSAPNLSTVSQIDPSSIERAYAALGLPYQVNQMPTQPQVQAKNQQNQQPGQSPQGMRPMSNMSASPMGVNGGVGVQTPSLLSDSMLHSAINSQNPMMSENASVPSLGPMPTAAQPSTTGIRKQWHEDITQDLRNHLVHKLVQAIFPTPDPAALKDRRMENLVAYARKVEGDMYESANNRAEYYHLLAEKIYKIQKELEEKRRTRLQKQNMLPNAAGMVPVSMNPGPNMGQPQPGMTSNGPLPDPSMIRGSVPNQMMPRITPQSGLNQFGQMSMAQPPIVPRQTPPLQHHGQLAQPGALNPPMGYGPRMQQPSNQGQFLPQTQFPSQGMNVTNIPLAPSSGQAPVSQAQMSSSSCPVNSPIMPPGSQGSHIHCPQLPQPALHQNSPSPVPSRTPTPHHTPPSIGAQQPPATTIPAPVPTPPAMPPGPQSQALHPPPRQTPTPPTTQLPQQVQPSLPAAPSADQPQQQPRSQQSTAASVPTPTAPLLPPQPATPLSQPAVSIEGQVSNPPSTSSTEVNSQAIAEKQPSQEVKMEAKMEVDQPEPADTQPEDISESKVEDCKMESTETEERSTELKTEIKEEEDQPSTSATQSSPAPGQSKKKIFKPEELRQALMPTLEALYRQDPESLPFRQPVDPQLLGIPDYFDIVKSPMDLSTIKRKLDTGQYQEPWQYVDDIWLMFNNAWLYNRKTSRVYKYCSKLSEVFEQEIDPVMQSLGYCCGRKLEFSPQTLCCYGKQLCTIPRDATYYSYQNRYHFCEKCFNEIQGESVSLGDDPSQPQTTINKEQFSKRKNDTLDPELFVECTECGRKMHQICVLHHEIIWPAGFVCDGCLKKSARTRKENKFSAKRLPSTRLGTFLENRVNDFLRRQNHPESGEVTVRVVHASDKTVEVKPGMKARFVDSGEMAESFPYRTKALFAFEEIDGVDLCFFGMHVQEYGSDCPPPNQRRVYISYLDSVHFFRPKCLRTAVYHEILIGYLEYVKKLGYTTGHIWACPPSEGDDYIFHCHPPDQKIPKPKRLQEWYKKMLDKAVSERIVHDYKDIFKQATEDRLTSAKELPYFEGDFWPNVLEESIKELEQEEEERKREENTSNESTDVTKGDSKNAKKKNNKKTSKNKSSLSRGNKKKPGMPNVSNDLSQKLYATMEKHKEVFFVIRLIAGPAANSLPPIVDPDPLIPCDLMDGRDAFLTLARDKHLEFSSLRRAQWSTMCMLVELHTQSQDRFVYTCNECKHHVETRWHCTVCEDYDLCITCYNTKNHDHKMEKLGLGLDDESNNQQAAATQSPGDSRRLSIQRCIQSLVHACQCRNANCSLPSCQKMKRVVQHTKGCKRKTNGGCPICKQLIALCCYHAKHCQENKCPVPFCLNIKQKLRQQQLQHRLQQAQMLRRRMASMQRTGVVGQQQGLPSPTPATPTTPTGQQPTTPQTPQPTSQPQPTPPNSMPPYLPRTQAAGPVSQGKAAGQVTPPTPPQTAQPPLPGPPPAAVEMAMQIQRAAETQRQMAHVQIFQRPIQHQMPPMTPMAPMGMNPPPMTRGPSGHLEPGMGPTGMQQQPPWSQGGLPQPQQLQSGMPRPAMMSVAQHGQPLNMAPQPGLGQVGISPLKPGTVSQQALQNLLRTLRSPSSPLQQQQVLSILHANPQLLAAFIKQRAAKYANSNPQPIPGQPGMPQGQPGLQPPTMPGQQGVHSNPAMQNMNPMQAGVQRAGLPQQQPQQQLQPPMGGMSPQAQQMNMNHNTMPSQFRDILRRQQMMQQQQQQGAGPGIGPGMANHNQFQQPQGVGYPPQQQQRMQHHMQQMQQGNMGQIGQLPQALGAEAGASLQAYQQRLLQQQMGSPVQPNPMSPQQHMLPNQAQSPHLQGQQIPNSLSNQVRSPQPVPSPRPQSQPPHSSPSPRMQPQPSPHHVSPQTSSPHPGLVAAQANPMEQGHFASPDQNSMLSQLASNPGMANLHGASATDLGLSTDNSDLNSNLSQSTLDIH
Sequence of Protein cereblon/Histone acetyltransferase p300 (Homo sapiens) (Q96SW2 whole entry partner): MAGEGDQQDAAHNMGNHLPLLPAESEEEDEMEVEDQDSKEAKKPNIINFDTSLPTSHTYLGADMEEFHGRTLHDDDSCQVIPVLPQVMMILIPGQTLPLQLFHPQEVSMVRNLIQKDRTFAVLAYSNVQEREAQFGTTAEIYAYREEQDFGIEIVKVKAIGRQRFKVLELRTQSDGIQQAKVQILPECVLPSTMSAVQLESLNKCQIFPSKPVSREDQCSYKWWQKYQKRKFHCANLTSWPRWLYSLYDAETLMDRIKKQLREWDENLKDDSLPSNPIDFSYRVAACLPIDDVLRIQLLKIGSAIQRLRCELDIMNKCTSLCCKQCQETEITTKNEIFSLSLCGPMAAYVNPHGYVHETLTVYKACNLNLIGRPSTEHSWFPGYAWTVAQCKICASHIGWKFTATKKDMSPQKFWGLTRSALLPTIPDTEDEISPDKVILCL

| Structure (SMILES) | IC50 (LNCaP) [nM] | Activity [1] [%] |
| --- | --- | --- |
| CC(=O)N1CCc2c(c(N3CCCc4cc(-c5cnn(C)c5)c(C(F)F)cc43)nn2C2CCN(C(=O)CN3CCC(CCc4cccc5c4n(C)c(=O)n5C4CCC(=O)NC4=O)CC3)CC2)C1 (centres undefined) | 33.1 | < 20 |
| CC(=O)N1CCc2c(c(N3CCCc4cc(-c5cnn(C)c5)c(C(F)F)cc43)nn2C2CCN(CCN3CCOC(CNc4cccc5c4C(=O)N(C4CCC(=O)NC4=O)C5=O)C3)CC2)C1 (centres undefined) | 0.1 | > 80 |
| CNC(=O)N1CCc2c(c(N3CCCc4cc(-c5cnn(C)c5)c(C(F)F)cc43)nn2C2CCN(C(=O)CCCCCNc3cccc4c3C(=O)N(C3CCC(=O)NC3=O)C4=O)CC2)C1 (centres undefined) | 0.4 | > 80 |
| CC(=O)N1CCc2c(c(N3CCCc4cc(-c5cnn(C)c5)c(C(F)F)cc43)nn2C2CCN(CCN3CCC(CCc4cccc5c4n(C)c(=O)n5C4CCC(=O)NC4=O)CC3)CC2)C1 (centres undefined) | 0.1 | > 80 |
| CC(=O)N1CCc2c(c(N3CCCc4cc(-c5cnn(C)c5)c(C(F)F)cc43)nn2C2CCN(C(=O)CCCCCNc3cccc4c3C(=O)N(C3CCC(=O)NC3=O)C4=O)CC2)C1 (centres undefined) | 44.5 | < 50 |
| CC(=O)N1CCc2c(c(N3CCCc4cc(-c5cnn(C)c5)c(C(F)F)cc43)nn2C2CCN(C(=O)CCCCCCCNc3cccc4c3C(=O)N(C3CCC(=O)NC3=O)C4=O)CC2)C1 (centres undefined) | 0.7 | > 80 |
| CC(=O)N1CCc2c(c(N3CCCc4cc(-c5cnn(C)c5)c(C(F)F)cc43)nn2C2CCN(CCN3CCC(CCc4ccc5c(c4)n(C)c(=O)n5C4CCC(=O)NC4=O)CC3)CC2)C1 (centres undefined) | 0.3 | > 80 |
| CC(=O)N1CCc2c(c(N3CCCc4cc(-c5cnn(C)c5)c(C(F)F)cc43)nn2C2CCN(CCCC3CCN(c4cccc5c4C(=O)N(C4CCC(=O)NC4=O)C5=O)CC3)CC2)C1 (centres undefined) | 0.8 | > 80 |
| CNC(=O)N1CCc2c(c(N3CCCc4cc(-c5cnn(C)c5)c(C(F)F)cc43)nn2C2CCN(C(=O)CCCCCn3c(=O)n(C4CCC(=O)NC4=O)c4ccccc43)CC2)C1 (centres undefined) | 0.9 | > 80 |
| CC(=O)N1CCc2c(c(N3CCCc4cc(-c5cnn(C)c5)c(C(F)F)cc43)nn2C2CCN(CCN3CCN(C#Cc4ccc5c(c4)n(C)c(=O)n5C4CCC(=O)NC4=O)CC3)CC2)C1 (centres undefined) | 0.1 | > 80 |
| CNC(=O)N1CCc2c(c(N3CCCc4cc(-c5cnn(C)c5)c(C(F)F)cc43)nn2C2CCN(C(=O)CCCCCCCNc3cccc4c3C(=O)N(C3CCC(=O)NC3=O)C4=O)CC2)C1 (centres undefined) | 0.8 | > 80 |
| CC(=O)N1CCc2c(c(N3CCCc4cc(-c5cnn(C)c5)c(C(F)F)cc43)nn2C2CCN(C(=O)CCCN3CCN(Cc4ccc5c(c4)n(C)c(=O)n5C4CCC(=O)NC4=O)CC3)CC2)C1 (centres undefined) | 0.3 | > 80 |
